In patent publication US11261136B2, “Triarylmethane compounds for controlling enzyme-induced urea decomposition” (priority 2017, dated 2022):
Like-named read-outs stand apart in the source and are kept apart here.

Assays:
[1] = molecular target: urease (Canavalia ensiformis, UniProt P07374); conditions: in solution; cited from earlier work
[2] = tested on: urease enzyme; assay: Nitrogen volatilization of 50:50 urea:water solutions (gas trap and FIA instrument)
Description: Various concentrations of Catechol Violet paired with polymer, were examined utilizing the gas trap and FIA instrument at Alltech (Sparta, Ill.). Treatment replicates are shown across the horizontal axis, and percent Nitrogen concentration (expressed as ammonia that has volatilized) is given in the vertical axis. For FIGS. 1, 2, 4A, and 4B, the treatments proceed in number order along the horizontal axis, moving from left to right, with the left being the lowest treatment number and the right being the highest treatment number. For FIGS. 3A and 3B, the treatments proceed as described above, with the exception of treatment 7, which is the farthest right along the horizontal axis. Briefly, the lower the amount of volatilized nitrogen, the greater the inhibition of the activity of the urease enzyme.
Each set of treatments includes:
• 1) An untreated control (50:50 urea:water, w/w). […] Concentrations and details of each treatment are given in the following paragraphs. 7.1—Three Day Results of Catechol Violet Solutions (FIG. 1)

[3] = tested on: urease enzyme; conditions: industry standard, added at 0.2% v/v of the urea solution; cited from earlier work
[4] = cited from earlier work
[5] = used with UAN; 87 trials and 487 comparisons; cited from earlier work
[6] = molecular target: T1, jackbean urease enzyme (Canavalia ensiformis, UniProt P07374); assay: biochemical; conditions: pH 5
T1 construct: purchased
Description: (§1) An aqueous solution containing 0.105 moles/L of monosodium phosphate was adjusted to a pH of 5.0 with sodium hydroxide. Suitable quantities of a solution of 3,3′,4-trihydroxysuchsone-2″-sulfonic acid were added, with stirring, to 19.0 mL of the above phosphate solution, to give a series of mixtures having the following concentrations of sulfonic acid: 100, 250, 500, 750, 1000, 2000, and 5000 ppb. Next, commercial jackbean urease enzyme solution of known concentration was added to each mixture to provide 40 units of enzyme per 50 mL of the mixture. The mixtures were allowed to stand for 5 hours in closed glass containers at 20° C., followed by the addition to each mixture of 1.00 mL of freshly prepared urea solution (2.00 moles/L), to give an overall reaction concentration of 0.100 moles/L of both urea and phosphate. These mixtures, containing phosphate, sulfonic acid, urease, and urea were deemed A mixtures.
(§2) Simultaneously, two more solutions were identically prepared, namely an enzyme-free control where both 3,3′,4-trihydroxysuchsone-2″-sulfonic acid and enzyme are omitted (mixture B), and an enzyme control where enzyme is present without any 3,3′,4-trihydroxysuchsone-2″-sulfonic acid (mixture C). Solution urea concentrations were measured immediately in each of the mixtures, and again after a 120-minute interval.
(§3) For purposes of these tests, the C mixture containing urease and urea was deemed to provide 0% inhibition, whereas the B mixture containing urea without urease was deemed to provide 100% inhibition.

[7] = molecular target: T1, jackbean urease enzyme; assay: Jackbean urease inhibition, Example 1 repeated with buffer at pH 7; format: biochemical
Description: as §1, §2, §3
Example 1 was repeated, but with the addition of a buffer to maintain a pH of 7.0 in all of the A, B, and C mixtures. The A mixtures contained the following amounts of the 3,3′,4-trihydroxysuchsone-2″-sulfonic acid: 100, 250, 500, 750, and 1000 ppb. It is known in the art that urease enzyme activity is greater and more difficult to inhibit at neutral pH, as compared with an acid pH, and that the much lower treatment levels would give less urease inhibition.

T1 sequence (P07374 whole entry, looked up): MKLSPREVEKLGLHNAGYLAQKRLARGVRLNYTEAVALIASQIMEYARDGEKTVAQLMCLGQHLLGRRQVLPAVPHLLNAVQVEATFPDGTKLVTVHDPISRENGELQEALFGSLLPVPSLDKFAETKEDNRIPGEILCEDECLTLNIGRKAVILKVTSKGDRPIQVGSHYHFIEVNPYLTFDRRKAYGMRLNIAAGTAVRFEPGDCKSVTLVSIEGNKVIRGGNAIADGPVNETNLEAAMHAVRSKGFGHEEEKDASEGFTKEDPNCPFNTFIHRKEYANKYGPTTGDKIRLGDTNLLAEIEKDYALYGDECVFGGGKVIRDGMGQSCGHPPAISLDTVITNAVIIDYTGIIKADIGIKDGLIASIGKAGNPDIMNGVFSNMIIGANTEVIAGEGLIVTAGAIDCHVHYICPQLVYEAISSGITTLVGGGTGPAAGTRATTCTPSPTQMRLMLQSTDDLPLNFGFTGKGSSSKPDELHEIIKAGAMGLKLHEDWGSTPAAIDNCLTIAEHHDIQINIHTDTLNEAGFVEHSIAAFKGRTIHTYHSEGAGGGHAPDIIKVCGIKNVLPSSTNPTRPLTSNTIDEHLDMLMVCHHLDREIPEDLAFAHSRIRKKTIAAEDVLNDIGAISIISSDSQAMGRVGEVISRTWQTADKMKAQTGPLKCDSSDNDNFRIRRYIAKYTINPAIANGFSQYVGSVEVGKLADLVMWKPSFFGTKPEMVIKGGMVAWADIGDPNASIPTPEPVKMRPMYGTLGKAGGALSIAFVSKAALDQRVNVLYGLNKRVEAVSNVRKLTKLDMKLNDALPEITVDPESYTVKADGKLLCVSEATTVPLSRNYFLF
Sequence of urease (P07374 whole entry, looked up): as above

For `Oc1ccccc1O` [catechol], the “concentration at which effective urease inhibitors” value [1] is listed as “about 1 ppm by weight”.

For `CCCCNP(N)(N)=S` [NBPT, N-(n-butyl) thiophosphoric triamide], the “urease activity and N-loss through volatilization (FIGS. 3A and 3B)” value ([2]; NBPT (Agrotain Ultra) 0.2% v/v, three and seven day test) is listed as “inhibits urease activity and N-loss through volatilization”, the “7-day N-loss via volatilization (FIG. 4B)” value ([2]; after 7 days, compared to untreated urea solution) is listed as “continue to limit N-loss via volatilization when compared to the untreated urea solution” and the “inhibition of N-volatilization (historical)” value [3] is listed as “near-total inhibition of N-volatilization”. For the same compound, the “NBPT content lost on storage” value ([4]; after six months) was “over 99%”, the “NBPT content lost on storage” value ([4]; storage at 25° C. for three months) was “up to 40%” and the “average improvement in yield” value [5] was “about 1.6 bushels/acre”. The “trials resulting in yield losses” value [5] was “about 40%”.

`O=C1C=C/C(=C(/c2ccc(O)c(O)c2)c2ccccc2S(=O)(=O)O)C=C1O` [3,3′,4-trihydroxysuchsone-2″-sulfonic acid] gave an inhibition at 0.1 ppm [6] of 7%, an inhibition at 0.25 ppm [6] of 22% and an inhibition at 0.5 ppm [6] of 25%. It also gave an inhibition at 0.75 ppm [6] of 45%, an inhibition at 1 ppm [6] of 61% and an inhibition at 2 ppm [6] of 76%. It also gave an inhibition at 5 ppm [6] of 88%, an inhibition at 0.1 ppm [7] of 2% and an inhibition at 0.25 ppm [7] of 30%. For the same compound, the inhibition at 0.5 ppm [7] was 41%, the inhibition at 0.75 ppm [7] was 46% and the inhibition at 1 ppm [7] was 50%.

For `O=C1C=CC(=O)C=C1` [benzoquinone], the “concentration at which effective urease inhibitors” value [1] is listed as “about 1 ppm by weight”.
